Measured values published in ChEMBL document CHEMBL5038634, “Virtual Screening Directly Identifies New Fragment-Sized Inhibitors of Carboxylesterase Notum with Nanomolar Activity” (J Med Chem, 2022).
Values after ≈ are worked out from the molar mass of the structure shown. Values joined by “and” are separate entries in the source; they are usually repeats but may differ in a detail not shown here. Equal entries are not always repeated. Blank lines part the entries; values can stand above or below the molecule they belong to.

What was measured:
[1] = target: T1, Palmitoleoyl-protein carboxylesterase NOTUM (Homo sapiens, UniProt Q6P988, C330S); assay: Inhibition of human Notum (81 to 451 Cys330Ser) using OPTS as substrate incubated for 40 mins by fluorescence based assay
[2] = target: T1, Palmitoleoyl-protein carboxylesterase NOTUM; assay: Inhibition of Notum (81 to 451 Cys330Ser) in HEK293T cells expressing TCF-LEF assessed as activation of Wnt signaling using WNT3A as substrate incubated for […] by Steady-Glo luciferase assay; assay type: cell-based
[3] = system: HEK-293T; assay: Cytotoxicity against HEK293T cells expressing TCF-LEF assessed as adverse effects on cell health by Cell Titre Glo assay; assay type: toxicity, cell-based; details: human
[4] = system: HEK-293T; assay: Cytotoxicity against HEK293T cells expressing TCF-LEF assessed as effect on total cell number by GFP based assay; assay type: toxicity; details: human
[5] = C0 in C57BL/6J mouse at 0.4 mg/kg, iv measured at 0.08 to 24 hrs by LC-MS/MS analysis; assay type: ADME, organism-based; details: in vivo, time 0.08-24 hrs
[6] = Half life in C57BL/6J mouse at 0.4 mg/kg, iv measured at 0.08 to 24 hrs by LC-MS/MS analysis; assay type: ADME, organism-based; details: in vivo, time 0.08-24 hrs
[7] = Volume of distribution at steady state in C57BL/6J mouse at 0.4 mg/kg, iv measured at 0.08 to 24 hrs by LC-MS/MS analysis; assay type: ADME, organism-based; details: in vivo, time 0.08-24 hrs, read-out: Vdss
[8] = Clearance in C57BL/6J mouse at 0.4 mg/kg, iv measured at 0.08 to 24 hrs by LC-MS/MS analysis; assay type: ADME, organism-based; details: in vivo, time 0.08-24 hrs
[9] = AUC (infinity) in C57BL/6J mouse at 0.4 mg/kg, iv measured at 0.08 to 24 hrs by LC-MS/MS analysis; assay type: ADME, organism-based; set-up: route intravenous, time upper 24 hrs, time lower 0.08 hrs, dose 0.4 mg/kg; details: in vivo
[10] = AUC (all) in C57BL/6J mouse at 0.4 mg/kg, iv measured at 0.08 to 24 hrs by LC-MS/MS analysis; assay type: ADME, organism-based; set-up: route intravenous, time 0.08-24 hrs, dose 0.4 mg/kg; details: in vivo
[11] = Drug concentration in C57BL/6J mouse brain at 0.4 mg/kg, iv measured at 1 hr by LC-MS/MS analysis; assay type: ADME, organism-based; details: read-out: Drug uptake
[12] = Drug concentration in C57BL/6J mouse brain at 0.4 mg/kg, iv measured at 4 hrs by LC-MS/MS analysis; assay type: ADME, organism-based; details: read-out: Drug uptake
[13] = Apparent permeability from apical to basolateral side in dog MDCKII-MDR1 cells at 10 uM incubated upto 120 mins by LC-MS/MS analysis; assay type: ADME, cell-based, Canis lupus familiaris; details: MDCK-MDR1
[14] = Aqueous solubility of the compound at pH 7.4 in pION buffer at 500uM incubated for 18 hrs by spectrophotometry analysis; assay type: physicochemical
[15] = Intrinsic clearance in mouse liver microsome at 1 uM incubated upto 60 mins in presence of NADPH by LC-MS/MS analysis; assay type: ADME; details: liver microsomes, read-out: CLH
[16] = Plasma protein binding in CD-1 mouse assessed as unbound fraction at 2 uM by Equilibrium dialysis method; assay type: ADME, cell-free
[17] = Acidic dissociation constant, pKa of the compound at pH 7.4; assay type: physicochemical
[18] = Plasma protein binding in CD-1 mouse at 2 uM by Equilibrium dialysis method; assay type: ADME, cell-free; details: read-out: PPB (converted)
[19] = Apparent permeability from basolateral to apical side in dog MDCKII-MDR1 cells at 10 uM incubated upto 120 mins by LC-MS/MS analysis; assay type: ADME, cell-based, Canis lupus familiaris; details: MDCK-MDR1
[20] = Stability in mouse liver microsome assessed as half life at 1 uM incubated upto 60 mins in presence of NADPH by LC-MS/MS analysis; assay type: ADME; details: liver microsomes
[21] = Apparent permeability in MDCKII-MDR1 cells assessed as compound recovery at 10 uM incubated upto 120 mins by LC-MS/MS analysis; assay type: ADME, cell-based, Canis lupus familiaris; details: dog, MDCK-MDR1, read-out: Activity

SMILES: O=c1[nH]nc2ccc(Sc3ccc(C(F)(F)F)cc3)nn12
- IC50 [1]: 28 nM
- EC50 [2]: 300 nM

SMILES: O=c1[nH]nc2ccc(Sc3ccc(Cl)c(Cl)c3)nn12
- IC50 [1]: 5 nM
- EC50 [2]: 110 nM
- Activity [3]: Non-Toxic
- Activity [4]: Non-Toxic
- C0 [5]: 1580 ng/mL
- half-life [6]: 42 min
- Vd [7]: 0.7 L/kg
- clearance [8]: 17.8 mL/min/kg
- AUC(0-inf) [9]: 370 ng·h/mL
- AUC [10]: 360 ng·h/mL
- concentration at 1 h [11]: < 5 ng/mL
- concentration at 4 h [12]: < 5 ng/mL

SMILES: Cc1ccc(Sc2ccc3n[nH]c(=O)n3n2)nc1
- IC50 [1]: 3600 nM

SMILES: Cc1ccc(/C=C2/N=C(c3cccc(Cl)c3Cl)OC2=O)o1
- IC50 [1]: 22 nM

SMILES: O=c1[nH]nc2ccc(Sc3cccc(C(F)(F)F)n3)nn12
- IC50 [1]: 410 nM
- EC50 [2]: > 10000 nM

SMILES: COc1ccc(/C=C2/N=C(c3cccc(Cl)c3Cl)OC2=O)c(OC)c1
- IC50 [1]: > 10000 nM

SMILES: O=c1[nH]nc2ccc(Sc3ccc(F)c(F)c3)nn12
- IC50 [1]: 120 nM
- EC50 [2]: 1100 nM

SMILES: O=C1OC(c2cccc(Cl)c2Cl)=N/C1=C/c1ccco1
- IC50 [1]: 12 nM

SMILES: Cc1ccccc1COc1nn2c(=O)c(C)nnc2s1
- IC50 [1]: 320 nM and 1600 nM

SMILES: O=c1[nH]nc2ccc(Sc3cccc(OC(F)(F)F)c3)nn12
- IC50 [1]: 4 nM
- EC50 [2]: 34 nM
- Activity [3]: Non-Toxic
- Activity [4]: Non-Toxic
- C0 [5]: 1900 ng/mL
- half-life [6]: 6 min
- Vd [7]: 0.2 L/kg
- clearance [8]: 24.8 mL/min/kg
- AUC(0-inf) [9]: 270 ng·h/mL
- AUC [10]: 270 ng·h/mL
- concentration at 1 h [11]: < 5 ng/mL
- concentration at 4 h [12]: < 5 ng/mL

SMILES: O=c1[nH]nc2ccc(Sc3ccc(Cl)cc3)nn12
- IC50 [1]: 21 nM
- EC50 [2]: 310 nM

SMILES: Cc1ccc(/C=C2\N=C(c3ccc(C)c(C)c3)OC2=O)o1
- IC50 [1]: 17 nM
- solubility at 18 h, 500 µM [14]: 0.31 µg/mL (≈ 1.1 µM)
- microsomal CLint at 1 µM [15]: 1.9 µL/min/mg
- half-life at 1 µM [20]: 360 min
- recovery at 2 h, 10 µM [21]: < 25%

SMILES: Cc1ccc(Oc2ccc3n[nH]c(=O)n3n2)cc1
- IC50 [1]: 3100 nM

SMILES: O=C1OC(c2cccc3ccccc23)=N/C1=C/c1ccco1
- IC50 [1]: 100 nM

SMILES: Cc1cc(C)cc(Sc2ccc3n[nH]c(=O)n3n2)c1
- IC50 [1]: 47 nM

SMILES: COC(=O)CCC(=O)N1CCc2ccccc21
- IC50 [1]: 90 nM

Second part, led by results:

- IC50 [1]: 87 nM
- EC50 [2]: 1100 nM
SMILES: O=c1[nH]nc2ccc(Sc3ccccc3F)nn12

- IC50 [1]: 89 nM
- EC50 [2]: 930 nM
SMILES: O=c1[nH]nc2ccc(Sc3ccccc3C(F)(F)F)nn12

- IC50 [1]: 30 nM
- EC50 [2]: 260 nM
SMILES: O=c1[nH]nc2ccc(Sc3cccc(F)c3)nn12

- IC50 [1]: 650 nM
- EC50 [2]: > 10000 nM
SMILES: Cc1cccc(Sc2ccc3n[nH]c(=O)n3n2)n1

- IC50 [1]: 9 nM
- EC50 [2]: 240 nM
SMILES: Cc1cccc(Sc2ccc3n[nH]c(=O)n3n2)c1

- IC50 [1]: 7 nM
- EC50 [2]: 130 nM
SMILES: Cc1ccc(Sc2ccc3n[nH]c(=O)n3n2)cc1C

- IC50 [1]: 30 nM
- EC50 [2]: 720 nM
SMILES: O=c1[nH]nc2ccc(Sc3ccccc3Cl)nn12

- IC50 [1]: 6 nM
- EC50 [2]: 88 nM
- C0 [5]: 1750 ng/mL
- half-life [6]: 18 min
- Vd [7]: 0.3 L/kg
- clearance [8]: 22.2 mL/min/kg
- AUC(0-inf) [9]: 300 ng·h/mL
- AUC [10]: 300 ng·h/mL
- concentration at 1 h [11]: < 5 ng/mL
- concentration at 4 h [12]: < 5 ng/mL
SMILES: O=c1[nH]nc2ccc(Sc3cccc(Cl)c3)nn12
- Activity [3]: Non-Toxic
- Activity [4]: Non-Toxic

- Papp A→B at 2 h, 10 µM [13]: 52 ×10⁻⁶ cm/s
- IC50 [1]: 27 nM
- EC50 [2]: 86 nM
- solubility at 18 h, 500 µM [14]: 32 µg/mL and 120 µM
- microsomal CLint at 1 µM [15]: 21 µL/min/mg
- fraction unbound at 2 µM [16]: 0.011
- pKa [17]: 7.9
- fraction unbound at 2 µM [18]: 0.012
- C0 [5]: 2620 ng/mL
- half-life [6]: 36 min
- Vd [7]: 0.1 L/kg
- clearance [8]: 2.8 mL/min/kg
- AUC(0-inf) [9]: 2350 ng·h/mL
- AUC [10]: 2330 ng·h/mL
- concentration at 1 h [11]: < 5 ng/mL
- concentration at 4 h [12]: < 5 ng/mL
- Papp B→A at 2 h, 10 µM [19]: 43 ×10⁻⁶ cm/s
SMILES: Cc1ccc(Sc2ccc3n[nH]c(=O)n3n2)cc1
- Activity [3]: Non-Toxic
- Activity [4]: Non-Toxic

- IC50 [1]: 150 nM
SMILES: O=c1[nH]nc2ccc(Sc3ccccc3)nn12

- IC50 [1]: 50 nM
- EC50 [2]: 300 nM
SMILES: Cc1ccccc1Sc1ccc2n[nH]c(=O)n2n1
